# Data taken from the supplement of paper PMC10733146.
# Columns and labels:
# Assay in all cases: viability relative to DMSO control (fraction); higher = less drug effect (more viable cells)
# Details in all cases: 48 h
# Filgotinib = compound: O=C(Nc1nc2cccc(-c3ccc(CN4CCS(=O)(=O)CC4)cc3)n2n1)C1CC1 [Filgotinib]
# Outline: (§1)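 Using 384-well plates with compounds already plated at five concentrations, one well per concentration, 4 × 10^4 primary mononuclear tumour cells were added per well. Cells were Ficoll-isolated from blood or bone marrow or came from processed lymph node, fresh or cryopreserved. They were kept for 48 h at 37 °C and 5% CO2 in RPMI-1640 supplemented with penicillin/streptomycin, L-glutamine and human serum, and viability was read as CellTiter-Glo luminescence relative to the median of 16 inner DMSO wells.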
# [1] = compound: O=C(NO)c1cccc(C(=O)NCCc2ccccc2)c1
# Outline: as §1
# I-BET-762 = compound: CCNC(=O)C[C@@H]1N=C(c2ccc(Cl)cc2)c2cc(OC)ccc2-n2c(C)nnc21 [I-BET-762]
# Outline: as §1
# Navitoclax = compound: CC1(C)CCC(c2ccc(Cl)cc2)=C(CN2CCN(c3ccc(C(=O)NS(=O)(=O)c4ccc(N[C@H](CCN5CCOCC5)CSc5ccccc5)c(S(=O)(=O)C(F)(F)F)c4)cc3)CC2)C1 [Navitoclax]
# Outline: as §1
# Vindesine = compound: CC[C@]1(O)C[C@@H]2CN(CCc3c([nH]c4ccccc34)[C@@](C(=O)OC)(c3cc4c(cc3OC)N(C)[C@H]3[C@@](O)(C(N)=O)[C@H](O)[C@]5(CC)C=CCN6CC[C@]43[C@@H]65)C2)C1 [Vindesine]
# Outline: as §1
# Pomalidomide = compound: Nc1cccc2c1C(=O)N(C1CCC(=O)NC1=O)C2=O [Pomalidomide]
# Outline: as §1
# [2] = compound: C[C@H](NC(=O)CCC(F)(F)F)C(=O)N[C@@H]1C(=O)N(CCO)c2ncccc2-c2ccccc21
# Outline: as §1
# Idasanutlin (RS7388) = compound: COc1cc(C(=O)O)ccc1NC(=O)[C@@H]1N[C@@H](CC(C)(C)C)[C@](C#N)(c2ccc(Cl)cc2F)[C@H]1c1cccc(Cl)c1F [Idasanutlin (RS7388)]
# Outline: as §1
# Chlorambucil = compound: O=C(O)CCCc1ccc(N(CCCl)CCCl)cc1 [Chlorambucil]
# Outline: as §1
# [3] = compound: O=C(Nc1ccc2[nH]nc(-c3ccncc3)c2c1)[C@@H]1CCN(CC(=O)N2CCN(c3ccc(-c4ncccn4)cc3)CC2)C1
# Outline: as §1
# Duvelisib = compound: C[C@H](Nc1ncnc2nc[nH]c12)c1cc2cccc(Cl)c2c(=O)n1-c1ccccc1 [Duvelisib]
# Outline: as §1
# Thalidomide = compound: O=C1CCC(N2C(=O)c3ccccc3C2=O)C(=O)N1 [Thalidomide]
# Outline: as §1
# [4] = compound: CCc1ccc(/C=C2/SC(=S)NC2=O)cc1
# Outline: as §1
# [5] = compound: C[C@H]1C[C@@H](n2c(Nc3ccc(OC(F)(F)F)cc3)nc3cc(CCC(=O)O)ccc32)CC(C)(C)C1
# Outline: as §1
# Venetoclax = compound: CC1(C)CCC(CN2CCN(c3ccc(C(=O)NS(=O)(=O)c4ccc(NCC5CCOCC5)c([N+](=O)[O-])c4)c(Oc4cnc5[nH]ccc5c4)c3)CC2)=C(c2ccc(Cl)cc2)C1 [Venetoclax]
# Outline: as §1
test system,measurement,setting,value
primary DLBCL patient cells (S082),viability,Filgotinib; 0.024 µM,0.971
same,viability,Filgotinib; 0.12 µM,0.976
same,viability,Filgotinib; 0.6 µM,1.03
same,viability,Filgotinib; 3 µM,0.933
same,viability,Filgotinib; 15 µM,0.758
same,viability,[1]; 0.024 µM,0.969
same,viability,[1]; 0.12 µM,0.932
same,viability,[1]; 0.6 µM,0.951
same,viability,[1]; 3 µM,0.899
same,viability,[1]; 15 µM,0.867
same,viability,I-BET-762; 0.008 µM,0.89
same,viability,I-BET-762; 0.04 µM,0.865
same,viability,I-BET-762; 0.2 µM,0.633
same,viability,I-BET-762; 1 µM,0.246
same,viability,I-BET-762; 5 µM,0.116
same,viability,Navitoclax; 0.0032 µM,1.03
same,viability,Navitoclax; 0.016 µM,1
same,viability,Navitoclax; 0.08 µM,0.772
same,viability,Navitoclax; 0.4 µM,0.286
same,viability,Navitoclax; 2 µM,0.0483
same,viability,Vindesine; 0.016 µM,0.728
same,viability,Vindesine; 0.08 µM,0.56
same,viability,Vindesine; 0.4 µM,0.532
same,viability,Vindesine; 2 µM,0.421
same,viability,Vindesine; 10 µM,0.366
same,viability,Pomalidomide; 0.0032 µM,0.93
same,viability,Pomalidomide; 0.016 µM,1.08
same,viability,Pomalidomide; 0.08 µM,1.14
same,viability,Pomalidomide; 0.4 µM,1.02
same,viability,Pomalidomide; 2 µM,1.04
same,viability,[2]; 0.016 µM,1.1
same,viability,[2]; 0.08 µM,1.12
same,viability,[2]; 0.4 µM,1.08
same,viability,[2]; 2 µM,1.19
same,viability,[2]; 10 µM,1.16
same,viability,Idasanutlin (RS7388); 0.032 µM,0.954
same,viability,Idasanutlin (RS7388); 0.16 µM,1.08
same,viability,Idasanutlin (RS7388); 0.8 µM,1.09
same,viability,Idasanutlin (RS7388); 4 µM,0.924
same,viability,Idasanutlin (RS7388); 20 µM,1.13
same,viability,Chlorambucil; 0.032 µM,1.07
same,viability,Chlorambucil; 0.16 µM,0.989
same,viability,Chlorambucil; 0.8 µM,1.06
same,viability,Chlorambucil; 4 µM,1
same,viability,Chlorambucil; 20 µM,0.831
same,viability,[3]; 0.008 µM,0.875
same,viability,[3]; 0.04 µM,0.771
same,viability,[3]; 0.2 µM,0.809
same,viability,[3]; 1 µM,0.79
same,viability,[3]; 5 µM,0.743
same,viability,Duvelisib; 0.0016 µM,0.758
same,viability,Duvelisib; 0.008 µM,0.689
same,viability,Duvelisib; 0.04 µM,0.679
same,viability,Duvelisib; 0.2 µM,0.65
same,viability,Duvelisib; 1 µM,0.619
same,viability,Thalidomide; 0.032 µM,0.969
same,viability,Thalidomide; 0.16 µM,0.938
same,viability,Thalidomide; 0.8 µM,0.969
same,viability,Thalidomide; 4 µM,0.927
same,viability,Thalidomide; 20 µM,1.01
same,viability,[4]; 0.024 µM,0.764
same,viability,[4]; 0.12 µM,0.807
same,viability,[4]; 0.6 µM,0.905
same,viability,[4]; 3 µM,0.871
same,viability,[4]; 15 µM,0.821
same,viability,[5]; 0.024 µM,0.849
same,viability,[5]; 0.12 µM,1.04
same,viability,[5]; 0.6 µM,0.914
same,viability,[5]; 3 µM,0.847
same,viability,[5]; 15 µM,0.943
same,viability,Venetoclax; 0.00064 µM,1.01
same,viability,Venetoclax; 0.0032 µM,0.876
same,viability,Venetoclax; 0.016 µM,0.547
same,viability,Venetoclax; 0.08 µM,0.143
same,viability,Venetoclax; 0.4 µM,0.0409
primary CLL patient cells (S031),viability,Filgotinib; 0.024 µM,1.03
same,viability,Filgotinib; 0.12 µM,0.984
same,viability,Filgotinib; 0.6 µM,1.08
same,viability,Filgotinib; 3 µM,0.962
same,viability,Filgotinib; 15 µM,0.284
same,viability,[1]; 0.024 µM,1.04
same,viability,[1]; 0.12 µM,0.976
same,viability,[1]; 0.6 µM,0.921
same,viability,[1]; 3 µM,0.972
same,viability,[1]; 15 µM,0.966
same,viability,I-BET-762; 0.008 µM,0.986
same,viability,I-BET-762; 0.04 µM,0.964
same,viability,I-BET-762; 0.2 µM,0.969
same,viability,I-BET-762; 1 µM,0.842
same,viability,I-BET-762; 5 µM,0.628
same,viability,Navitoclax; 0.0032 µM,1.03
same,viability,Navitoclax; 0.016 µM,0.762
same,viability,Navitoclax; 0.08 µM,0.361
same,viability,Navitoclax; 0.4 µM,0.109
same,viability,Navitoclax; 2 µM,0.0291
same,viability,Vindesine; 0.016 µM,0.447
same,viability,Vindesine; 0.08 µM,0.269
same,viability,Vindesine; 0.4 µM,0.17
same,viability,Vindesine; 2 µM,0.151
same,viability,Vindesine; 10 µM,0.0709
same,viability,Pomalidomide; 0.0032 µM,0.987
same,viability,Pomalidomide; 0.016 µM,1.24
same,viability,Pomalidomide; 0.08 µM,1.27
same,viability,Pomalidomide; 0.4 µM,1.33
same,viability,Pomalidomide; 2 µM,1.48
same,viability,[2]; 0.016 µM,0.929
same,viability,[2]; 0.08 µM,0.966
same,viability,[2]; 0.4 µM,0.83
same,viability,[2]; 2 µM,0.918
same,viability,[2]; 10 µM,0.852
same,viability,Idasanutlin (RS7388); 0.032 µM,0.623
same,viability,Idasanutlin (RS7388); 0.16 µM,0.53
same,viability,Idasanutlin (RS7388); 0.8 µM,0.244
same,viability,Idasanutlin (RS7388); 4 µM,0.0778
same,viability,Idasanutlin (RS7388); 20 µM,0.0346
same,viability,Chlorambucil; 0.032 µM,0.957
same,viability,Chlorambucil; 0.16 µM,0.875
same,viability,Chlorambucil; 0.8 µM,0.965
same,viability,Chlorambucil; 4 µM,0.661
same,viability,Chlorambucil; 20 µM,0.102
same,viability,[3]; 0.008 µM,0.782
same,viability,[3]; 0.04 µM,0.686
same,viability,[3]; 0.2 µM,0.469
same,viability,[3]; 1 µM,0.307
same,viability,[3]; 5 µM,0.269
same,viability,Duvelisib; 0.0016 µM,0.735
same,viability,Duvelisib; 0.008 µM,0.681
same,viability,Duvelisib; 0.04 µM,0.561
same,viability,Duvelisib; 0.2 µM,0.587
same,viability,Duvelisib; 1 µM,0.475
same,viability,Thalidomide; 0.032 µM,0.913
same,viability,Thalidomide; 0.16 µM,0.974
same,viability,Thalidomide; 0.8 µM,0.95
same,viability,Thalidomide; 4 µM,0.97
same,viability,Thalidomide; 20 µM,0.961
same,viability,[4]; 0.024 µM,0.63
same,viability,[4]; 0.12 µM,0.764
same,viability,[4]; 0.6 µM,0.871
same,viability,[4]; 3 µM,0.828
same,viability,[4]; 15 µM,0.821
same,viability,[5]; 0.024 µM,0.737
same,viability,[5]; 0.12 µM,0.895
same,viability,[5]; 0.6 µM,0.868
same,viability,[5]; 3 µM,0.774
same,viability,[5]; 15 µM,0.805
same,viability,Venetoclax; 0.00064 µM,0.848
same,viability,Venetoclax; 0.0032 µM,0.559
same,viability,Venetoclax; 0.016 µM,0.246
same,viability,Venetoclax; 0.08 µM,0.0921
same,viability,Venetoclax; 0.4 µM,0.0313
primary AML patient cells (S089),viability,Filgotinib; 0.024 µM,0.778
same,viability,Filgotinib; 0.12 µM,0.938
same,viability,Filgotinib; 0.6 µM,0.846
same,viability,Filgotinib; 3 µM,0.752
same,viability,Filgotinib; 15 µM,0.278
same,viability,[1]; 0.024 µM,0.882
same,viability,[1]; 0.12 µM,0.862
same,viability,[1]; 0.6 µM,0.713
same,viability,[1]; 3 µM,0.657
same,viability,[1]; 15 µM,0.693
same,viability,I-BET-762; 0.008 µM,0.972
same,viability,I-BET-762; 0.04 µM,0.928
same,viability,I-BET-762; 0.2 µM,0.863
same,viability,I-BET-762; 1 µM,0.621
same,viability,I-BET-762; 5 µM,0.391
same,viability,Navitoclax; 0.0032 µM,1.02
same,viability,Navitoclax; 0.016 µM,0.783
same,viability,Navitoclax; 0.08 µM,0.957
same,viability,Navitoclax; 0.4 µM,0.685
same,viability,Navitoclax; 2 µM,0.521
same,viability,Vindesine; 0.016 µM,0.526
same,viability,Vindesine; 0.08 µM,0.75
same,viability,Vindesine; 0.4 µM,0.485
same,viability,Vindesine; 2 µM,0.419
same,viability,Vindesine; 10 µM,0.43
same,viability,Pomalidomide; 0.0032 µM,0.815
same,viability,Pomalidomide; 0.016 µM,0.669
same,viability,Pomalidomide; 0.08 µM,0.639
same,viability,Pomalidomide; 0.4 µM,0.665
same,viability,Pomalidomide; 2 µM,0.644
same,viability,[2]; 0.016 µM,0.788
same,viability,[2]; 0.08 µM,1.14
same,viability,[2]; 0.4 µM,1
same,viability,[2]; 2 µM,0.996
same,viability,[2]; 10 µM,0.888
same,viability,Idasanutlin (RS7388); 0.032 µM,0.929
same,viability,Idasanutlin (RS7388); 0.16 µM,0.889
same,viability,Idasanutlin (RS7388); 0.8 µM,0.691
same,viability,Idasanutlin (RS7388); 4 µM,0.581
same,viability,Idasanutlin (RS7388); 20 µM,0.301
same,viability,Chlorambucil; 0.032 µM,0.996
same,viability,Chlorambucil; 0.16 µM,1.04
same,viability,Chlorambucil; 0.8 µM,1
same,viability,Chlorambucil; 4 µM,0.957
same,viability,Chlorambucil; 20 µM,0.724
same,viability,[3]; 0.008 µM,0.643
same,viability,[3]; 0.04 µM,0.593
same,viability,[3]; 0.2 µM,0.543
same,viability,[3]; 1 µM,0.515
same,viability,[3]; 5 µM,0.47
same,viability,Duvelisib; 0.0016 µM,0.607
same,viability,Duvelisib; 0.008 µM,0.669
same,viability,Duvelisib; 0.04 µM,0.615
same,viability,Duvelisib; 0.2 µM,0.543
same,viability,Duvelisib; 1 µM,0.537
same,viability,Thalidomide; 0.032 µM,0.948
same,viability,Thalidomide; 0.16 µM,0.951
same,viability,Thalidomide; 0.8 µM,0.93
same,viability,Thalidomide; 4 µM,0.803
same,viability,Thalidomide; 20 µM,0.952
same,viability,[4]; 0.024 µM,0.605
same,viability,[4]; 0.12 µM,0.87
same,viability,[4]; 0.6 µM,0.878
same,viability,[4]; 3 µM,0.648
same,viability,[4]; 15 µM,0.905
same,viability,[5]; 0.024 µM,0.821
same,viability,[5]; 0.12 µM,0.639
same,viability,[5]; 0.6 µM,0.668
same,viability,[5]; 3 µM,0.681
same,viability,[5]; 15 µM,0.489
same,viability,Venetoclax; 0.00064 µM,1.01
same,viability,Venetoclax; 0.0032 µM,0.937
same,viability,Venetoclax; 0.016 µM,0.891
same,viability,Venetoclax; 0.08 µM,0.645
same,viability,Venetoclax; 0.4 µM,0.616
